Laboratory results published in publication PMC4245125, “Pharmacological and Behavioral Characterization of D-473, an Orally Active Triple Reuptake Inhibitor Targeting Dopamine, Serotonin and Norepinephrine Transporters” (PLoS ONE, 2014).

Key:
D4 = biological target: T1, D4 (Homo sapiens, UniProt P21917); assay: NIMH PDSP receptor binding, D4; conditions: [3H]N-methylspiperone, read-out: % Inhibition of Binding at 10 µM D-473
T1 construct: purchased NIMH PDSP

5HT1a = biological target: T2, 5HT1a (Homo sapiens, UniProt P08908); assay: NIMH PDSP receptor binding, 5HT1a; conditions: [3H]8-OH-DPAT, read-out: % Inhibition of Binding at 10 µM D-473
T2 construct: purchased NIMH PDSP
T2 sequence (P08908 whole entry): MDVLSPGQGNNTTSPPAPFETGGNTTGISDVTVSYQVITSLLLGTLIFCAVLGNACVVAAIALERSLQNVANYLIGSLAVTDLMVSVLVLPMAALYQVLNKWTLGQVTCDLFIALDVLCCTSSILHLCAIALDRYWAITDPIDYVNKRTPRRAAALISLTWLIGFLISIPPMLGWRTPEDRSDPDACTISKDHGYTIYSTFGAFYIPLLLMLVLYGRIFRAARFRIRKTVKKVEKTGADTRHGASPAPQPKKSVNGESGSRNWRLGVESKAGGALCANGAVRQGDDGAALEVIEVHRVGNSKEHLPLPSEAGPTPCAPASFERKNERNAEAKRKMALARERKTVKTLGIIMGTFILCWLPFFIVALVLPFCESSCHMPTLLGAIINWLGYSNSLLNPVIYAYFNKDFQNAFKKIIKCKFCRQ

5HT1b = biological target: T3, 5HT1b (Homo sapiens, UniProt P28222); assay: NIMH PDSP receptor binding, 5HT1b; conditions: [3H]GR-125743, read-out: % Inhibition of Binding at 10 µM D-473
T3 construct: purchased NIMH PDSP
T3 sequence (P28222 whole entry): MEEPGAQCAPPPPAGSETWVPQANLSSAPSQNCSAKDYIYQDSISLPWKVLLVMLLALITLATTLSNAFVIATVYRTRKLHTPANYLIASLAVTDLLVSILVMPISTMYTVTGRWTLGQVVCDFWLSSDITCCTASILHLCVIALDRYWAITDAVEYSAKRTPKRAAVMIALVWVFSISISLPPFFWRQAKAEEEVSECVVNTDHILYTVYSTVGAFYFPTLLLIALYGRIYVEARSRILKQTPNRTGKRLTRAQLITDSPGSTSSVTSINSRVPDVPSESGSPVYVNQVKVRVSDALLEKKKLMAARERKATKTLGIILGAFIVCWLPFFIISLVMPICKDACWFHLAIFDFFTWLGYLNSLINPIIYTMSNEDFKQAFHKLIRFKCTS

5HT1e = biological target: T4, 5HT1e (Homo sapiens, UniProt P28566); assay: NIMH PDSP receptor binding, 5HT1e; conditions: [3H]5-HT, read-out: % Inhibition of Binding at 10 µM D-473
T4 construct: purchased NIMH PDSP
T4 sequence (P28566 whole entry): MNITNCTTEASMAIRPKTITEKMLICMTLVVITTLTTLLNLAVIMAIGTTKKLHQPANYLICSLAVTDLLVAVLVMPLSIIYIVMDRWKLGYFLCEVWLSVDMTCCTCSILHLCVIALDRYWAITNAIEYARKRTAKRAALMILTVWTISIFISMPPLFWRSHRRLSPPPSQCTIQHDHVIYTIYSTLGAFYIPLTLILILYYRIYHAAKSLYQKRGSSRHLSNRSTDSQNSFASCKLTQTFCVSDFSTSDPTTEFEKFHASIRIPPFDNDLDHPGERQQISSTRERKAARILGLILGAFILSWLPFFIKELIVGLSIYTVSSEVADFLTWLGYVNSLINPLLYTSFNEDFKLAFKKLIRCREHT

M1 = biological target: T5, M1 (Homo sapiens, UniProt P11229); assay: biochemical; conditions: read-out: % Inhibition of Binding at 10 µM D-473
T5 construct: purchased NIMH PDSP
T5 sequence (P11229 whole entry): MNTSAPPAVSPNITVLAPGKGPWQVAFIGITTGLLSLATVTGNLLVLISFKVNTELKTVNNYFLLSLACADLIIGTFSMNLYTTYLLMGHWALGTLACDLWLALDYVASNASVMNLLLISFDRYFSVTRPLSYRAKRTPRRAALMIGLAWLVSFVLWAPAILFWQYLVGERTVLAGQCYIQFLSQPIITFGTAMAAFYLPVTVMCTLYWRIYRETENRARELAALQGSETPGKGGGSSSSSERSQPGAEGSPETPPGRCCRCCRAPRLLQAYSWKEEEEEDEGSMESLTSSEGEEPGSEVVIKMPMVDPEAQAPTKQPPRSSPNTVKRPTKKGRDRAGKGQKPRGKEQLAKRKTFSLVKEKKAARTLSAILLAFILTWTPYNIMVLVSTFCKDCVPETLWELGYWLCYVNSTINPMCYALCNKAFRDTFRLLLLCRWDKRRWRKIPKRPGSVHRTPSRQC

[1] = Plasma concentration after oral administration in rats; type: in vivo; conditions: rat, male Sprague-Dawley rats, 25 mg/kg PO
Description: Sample preparation: Following oral administration of 25 mg/kg of D-473 and D-142 in male Sprague Dawley rats, the blood samples were collected at different time points over a period of 8 h for analysis. Concentrations of D-473 and D-142 in plasma were quantitated using a set of calibration standards prepared in blank matrix that were processed in parallel. Plasma concentration evaluation was carried out by the CRO, Absorption System, PA. Additionally, brain uptake studies of D-473 were carried out at three different time points (2, 4 and 6 h) following oral administration of 25 mg/kg D-473. Concentrations of D-473 in rat brain were quantitated using a set of calibration standards which were prepared in blank brain homogenate matrix on the day of analysis. The standard samples (5, 10, 25, 100, 500, 1000, and 2000 ng/mL) for calibration curve were prepared by spiking 45 µL of blank rat plasma with 5 µL of appropriate working dilution of D-473 in acetonitrile. The bioanalytical sample preparation for brain and plasma analysis followed by quantification of test compounds entailed the addition of 250 µL acetonitrile to every 50 µL of standard and analyte samples to precipitate tissue plasma proteins and tissue macromolecules. These mixtures were then vortexed for 15 min at 1400 rpm. The suspensions were then clarified by centrifugation (18000 g, 10 min at 4°C), and each 150 µL of the resulting supernatant was mixed well with 50 µL 0.1% formic acid in 50/50 (v/v) ACN/water solution for about 10 sec. The mixtures were again centrifuged (18000 g, 10 min at 4°C) before 100 µL of clear supernatant were transferred to auto sampler vials for LC-MS/MS analysis.
The analysis of blood sample was carried out by the CRO Absorption system, PA. Briefly, the analysis was carried out by Waters Acquity UPLC equipped with PE Sciex API4000 mass spectrometer. Reverse phase Waters Acquity BEH Phenyl Column 1.7micron, 2.1×30 mm column was used for analysis. 5 µL of sample solutions were injected with a flow rate 1 mL/min and the samples were eluted with gradient elution using solvent A (10% buffer: 90% water) and solvent B (10% buffer: 90% acetonitrile). Buffer used was 40 mM Ammonium Formate Buffer, pH 3.5. Pharmacokinetic prarameters were estimated by a non-compartmental model using WinNonlin v5.2.1 software.

T1 sequence (P21917 whole entry): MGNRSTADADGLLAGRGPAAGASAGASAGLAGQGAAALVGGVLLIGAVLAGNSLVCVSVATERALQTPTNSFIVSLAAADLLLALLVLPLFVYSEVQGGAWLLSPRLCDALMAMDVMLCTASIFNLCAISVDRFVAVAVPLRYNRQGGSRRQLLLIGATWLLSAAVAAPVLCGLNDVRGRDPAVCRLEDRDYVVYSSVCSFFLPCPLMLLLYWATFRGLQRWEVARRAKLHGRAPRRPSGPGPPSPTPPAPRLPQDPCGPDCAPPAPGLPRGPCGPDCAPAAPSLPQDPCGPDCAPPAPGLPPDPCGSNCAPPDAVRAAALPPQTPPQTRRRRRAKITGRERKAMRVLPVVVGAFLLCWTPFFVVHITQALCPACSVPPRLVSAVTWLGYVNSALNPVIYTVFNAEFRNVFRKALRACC

## COc1ccc(CN[C@@H]2CO[C@H](C(c3ccc(F)cc3)c3ccc(F)cc3)C[C@H]2O)cc1 [Compound D-473, (2S,4R,5R)-2-(bis(4-fluorophenyl)methyl)-5-((4-methoxybenzyl)amino)tetrahydro-2H-pyran-4-ol]
D4
  inhibition at 10 µM: 37.2%
5HT1a
  inhibition at 10 µM: 35.4%
5HT1b
  inhibition at 10 µM: 14.2%
5HT1e
  inhibition at 10 µM: 38%
M1
  inhibition at 10 µM: 15%
[1]; 3% HPßCD in water, read-out: Average maximum plasma concentration, Cmax
  Cmax: 0.404 ± 0.223 µg/mL
[1]; read-out: Estimated average half-life (converted)
  half-life: 6.39 ± 0.106 h
